Measurements as given in the supplement of paper PMC12463676, “Small-molecule dissolution of stress granules by redox modulation benefits ALS models” (Nature Chemical Biology, 2025).

Tests used:
[1] = compound: O=[As]([O-])(O)O.[K+] [potassium arsenate]; experiment: thermal stability z-score vs DMSO; higher = more thermally stabilized by treatment; conditions: HeLa; arsenate concentration 1 mM
Experimental: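 Cellular thermal proteome profiling in HeLa cells treated with 1 mM arsenate for 1 h (DMSO pretreatment), heated to ten temperatures (37-66.3 °C). Soluble protein was quantified by TMT mass spectrometry relative to DMSO controls; the thermal stability score was transformed to a z-score; mean of n = 3 experiments.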

[2] = compound: NC(=O)CCCCC1CCSS1 [lipoamide]; experiment: as above; conditions: HeLa, lipoamide concentration 100 µM
Experimental: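 Cellular thermal proteome profiling in HeLa cells. Cells were treated with 100 µM lipoamide for 1 h, with or without 1 mM arsenate for a further 1 h, then heated to ten temperatures (37-66.3 °C), and soluble protein was quantified by TMT mass spectrometry relative to 0.1% DMSO controls. The thermal stability score (sum of log2 fold changes minus the abundance score) was transformed to a z-score; mean of n = 3 experiments.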

[3] = arsenate co-treatment: 1 mM arsenate 1 h
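Note: each temperature applied for 3 min, abundance score taken as mean log2 fold change at the two lowest temperatures, z-score obtained by mean subtraction and division by SD.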

UniProt O15234, sequence (O15234 whole entry): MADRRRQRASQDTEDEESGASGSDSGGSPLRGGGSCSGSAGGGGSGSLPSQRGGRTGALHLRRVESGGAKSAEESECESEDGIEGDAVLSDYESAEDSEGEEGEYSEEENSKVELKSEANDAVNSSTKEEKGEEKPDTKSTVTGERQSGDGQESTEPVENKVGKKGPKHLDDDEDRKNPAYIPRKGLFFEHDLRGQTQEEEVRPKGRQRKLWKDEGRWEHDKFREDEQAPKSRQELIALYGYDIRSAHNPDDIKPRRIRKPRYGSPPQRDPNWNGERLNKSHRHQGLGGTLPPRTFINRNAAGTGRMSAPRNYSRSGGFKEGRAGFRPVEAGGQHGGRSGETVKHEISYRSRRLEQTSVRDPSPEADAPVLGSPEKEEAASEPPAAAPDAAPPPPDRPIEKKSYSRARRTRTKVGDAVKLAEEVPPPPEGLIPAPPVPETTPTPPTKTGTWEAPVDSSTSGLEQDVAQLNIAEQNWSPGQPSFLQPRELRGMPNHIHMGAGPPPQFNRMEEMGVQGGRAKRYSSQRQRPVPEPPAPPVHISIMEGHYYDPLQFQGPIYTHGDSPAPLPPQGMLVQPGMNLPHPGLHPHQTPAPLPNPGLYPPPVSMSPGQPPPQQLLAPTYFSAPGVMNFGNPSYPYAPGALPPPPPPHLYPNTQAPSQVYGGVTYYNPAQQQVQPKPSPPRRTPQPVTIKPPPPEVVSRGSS
UniProt Q92804, sequence (Q92804 whole entry): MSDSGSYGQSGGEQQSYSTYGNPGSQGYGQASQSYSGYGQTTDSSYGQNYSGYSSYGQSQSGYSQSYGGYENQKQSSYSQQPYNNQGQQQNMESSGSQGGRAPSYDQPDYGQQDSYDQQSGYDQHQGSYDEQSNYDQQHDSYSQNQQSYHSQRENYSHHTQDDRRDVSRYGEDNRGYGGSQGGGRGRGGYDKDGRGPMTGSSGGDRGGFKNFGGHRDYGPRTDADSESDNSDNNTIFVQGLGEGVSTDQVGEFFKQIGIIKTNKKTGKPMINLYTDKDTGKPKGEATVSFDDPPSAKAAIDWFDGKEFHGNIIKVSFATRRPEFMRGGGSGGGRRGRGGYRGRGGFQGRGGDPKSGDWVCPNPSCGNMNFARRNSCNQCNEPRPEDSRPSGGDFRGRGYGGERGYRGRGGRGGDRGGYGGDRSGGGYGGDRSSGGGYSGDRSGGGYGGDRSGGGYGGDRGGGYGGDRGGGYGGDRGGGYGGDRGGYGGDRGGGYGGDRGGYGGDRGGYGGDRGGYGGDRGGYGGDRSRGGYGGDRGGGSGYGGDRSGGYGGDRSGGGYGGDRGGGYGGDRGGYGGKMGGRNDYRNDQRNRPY
UniProt Q6NZI2, sequence (Q6NZI2 whole entry): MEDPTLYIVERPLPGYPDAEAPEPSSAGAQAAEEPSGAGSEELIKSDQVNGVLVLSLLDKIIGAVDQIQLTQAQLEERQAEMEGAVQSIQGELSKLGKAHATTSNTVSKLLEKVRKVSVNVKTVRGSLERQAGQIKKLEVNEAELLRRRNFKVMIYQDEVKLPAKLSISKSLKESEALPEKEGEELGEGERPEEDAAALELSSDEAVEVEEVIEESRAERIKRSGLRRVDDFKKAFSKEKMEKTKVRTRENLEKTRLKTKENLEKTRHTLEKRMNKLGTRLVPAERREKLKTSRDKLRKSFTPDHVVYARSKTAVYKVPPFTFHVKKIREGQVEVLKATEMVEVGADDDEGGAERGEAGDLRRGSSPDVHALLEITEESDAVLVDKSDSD
UniProt O43617, sequence (O43617 whole entry): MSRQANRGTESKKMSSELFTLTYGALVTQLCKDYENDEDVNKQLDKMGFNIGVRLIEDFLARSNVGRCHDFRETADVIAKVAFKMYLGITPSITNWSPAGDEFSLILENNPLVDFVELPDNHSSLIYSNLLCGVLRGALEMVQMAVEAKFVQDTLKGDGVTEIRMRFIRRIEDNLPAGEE
UniProt Q86YT6, sequence (Q86YT6 whole entry, looked up): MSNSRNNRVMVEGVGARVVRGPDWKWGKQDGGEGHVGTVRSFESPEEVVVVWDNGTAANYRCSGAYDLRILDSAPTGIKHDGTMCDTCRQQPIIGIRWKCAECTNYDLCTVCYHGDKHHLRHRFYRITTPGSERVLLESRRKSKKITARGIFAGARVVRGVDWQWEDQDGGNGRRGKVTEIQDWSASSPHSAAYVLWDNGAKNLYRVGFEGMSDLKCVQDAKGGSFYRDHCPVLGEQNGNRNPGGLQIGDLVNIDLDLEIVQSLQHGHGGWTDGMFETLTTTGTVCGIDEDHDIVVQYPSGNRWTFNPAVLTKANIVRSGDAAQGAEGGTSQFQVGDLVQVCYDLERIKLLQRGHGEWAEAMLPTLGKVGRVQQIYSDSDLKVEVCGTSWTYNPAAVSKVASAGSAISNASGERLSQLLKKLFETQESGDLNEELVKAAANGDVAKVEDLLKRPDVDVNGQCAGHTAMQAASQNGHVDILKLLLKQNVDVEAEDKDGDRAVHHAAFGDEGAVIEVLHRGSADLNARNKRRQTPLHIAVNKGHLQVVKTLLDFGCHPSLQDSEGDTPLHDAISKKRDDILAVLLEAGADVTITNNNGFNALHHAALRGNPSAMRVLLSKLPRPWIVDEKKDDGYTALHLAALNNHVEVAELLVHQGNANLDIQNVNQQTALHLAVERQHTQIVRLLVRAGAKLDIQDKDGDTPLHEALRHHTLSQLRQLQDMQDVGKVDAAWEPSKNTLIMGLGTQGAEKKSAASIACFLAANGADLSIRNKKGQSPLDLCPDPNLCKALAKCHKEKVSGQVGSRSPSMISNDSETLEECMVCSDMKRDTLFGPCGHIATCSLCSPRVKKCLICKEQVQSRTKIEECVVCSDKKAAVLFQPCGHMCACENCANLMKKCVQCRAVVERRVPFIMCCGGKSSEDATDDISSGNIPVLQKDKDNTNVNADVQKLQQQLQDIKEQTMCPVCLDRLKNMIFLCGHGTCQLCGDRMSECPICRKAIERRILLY
UniProt O15127, sequence (O15127 whole entry): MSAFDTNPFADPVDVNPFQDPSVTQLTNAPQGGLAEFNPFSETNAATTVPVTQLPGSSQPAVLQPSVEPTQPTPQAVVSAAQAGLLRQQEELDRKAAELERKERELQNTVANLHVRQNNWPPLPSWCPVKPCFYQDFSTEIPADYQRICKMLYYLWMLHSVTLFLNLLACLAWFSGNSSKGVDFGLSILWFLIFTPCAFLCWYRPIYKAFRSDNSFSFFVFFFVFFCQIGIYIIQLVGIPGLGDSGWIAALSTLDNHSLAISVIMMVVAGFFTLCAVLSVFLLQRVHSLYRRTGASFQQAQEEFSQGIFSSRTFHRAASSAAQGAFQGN
UniProt Q96Q11, sequence (Q96Q11 whole entry): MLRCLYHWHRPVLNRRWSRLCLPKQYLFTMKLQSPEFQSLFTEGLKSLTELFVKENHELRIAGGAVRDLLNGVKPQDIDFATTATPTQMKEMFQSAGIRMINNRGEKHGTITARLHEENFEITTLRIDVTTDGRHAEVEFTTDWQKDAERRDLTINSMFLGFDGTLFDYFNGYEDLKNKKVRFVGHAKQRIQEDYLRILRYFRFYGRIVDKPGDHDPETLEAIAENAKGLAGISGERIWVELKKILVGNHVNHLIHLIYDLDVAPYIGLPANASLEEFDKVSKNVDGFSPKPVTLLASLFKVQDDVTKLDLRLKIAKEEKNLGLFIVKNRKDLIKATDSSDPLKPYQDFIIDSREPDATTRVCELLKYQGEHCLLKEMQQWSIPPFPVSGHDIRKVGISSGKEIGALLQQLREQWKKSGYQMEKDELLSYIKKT
UniProt Q9NX57, sequence (Q9NX57 whole entry): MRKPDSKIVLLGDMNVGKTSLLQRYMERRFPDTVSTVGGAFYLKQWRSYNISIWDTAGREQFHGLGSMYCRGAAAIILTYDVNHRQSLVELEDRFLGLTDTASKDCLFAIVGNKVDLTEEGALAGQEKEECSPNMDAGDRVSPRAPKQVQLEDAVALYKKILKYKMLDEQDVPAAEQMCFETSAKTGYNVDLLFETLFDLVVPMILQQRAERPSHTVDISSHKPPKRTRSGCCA
UniProt Q13569, sequence (Q13569 whole entry): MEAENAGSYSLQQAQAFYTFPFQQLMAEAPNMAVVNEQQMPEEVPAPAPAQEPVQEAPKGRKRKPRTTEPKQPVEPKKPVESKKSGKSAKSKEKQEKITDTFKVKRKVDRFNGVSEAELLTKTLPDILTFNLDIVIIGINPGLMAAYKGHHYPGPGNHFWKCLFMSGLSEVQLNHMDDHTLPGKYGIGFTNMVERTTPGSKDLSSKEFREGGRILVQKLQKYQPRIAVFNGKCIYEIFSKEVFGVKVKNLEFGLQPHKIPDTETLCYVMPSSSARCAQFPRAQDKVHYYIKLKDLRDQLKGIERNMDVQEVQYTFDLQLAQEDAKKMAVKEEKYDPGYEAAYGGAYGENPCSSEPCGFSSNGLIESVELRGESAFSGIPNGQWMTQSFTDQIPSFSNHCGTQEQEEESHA
UniProt Q9BVG9, sequence (Q9BVG9 whole entry): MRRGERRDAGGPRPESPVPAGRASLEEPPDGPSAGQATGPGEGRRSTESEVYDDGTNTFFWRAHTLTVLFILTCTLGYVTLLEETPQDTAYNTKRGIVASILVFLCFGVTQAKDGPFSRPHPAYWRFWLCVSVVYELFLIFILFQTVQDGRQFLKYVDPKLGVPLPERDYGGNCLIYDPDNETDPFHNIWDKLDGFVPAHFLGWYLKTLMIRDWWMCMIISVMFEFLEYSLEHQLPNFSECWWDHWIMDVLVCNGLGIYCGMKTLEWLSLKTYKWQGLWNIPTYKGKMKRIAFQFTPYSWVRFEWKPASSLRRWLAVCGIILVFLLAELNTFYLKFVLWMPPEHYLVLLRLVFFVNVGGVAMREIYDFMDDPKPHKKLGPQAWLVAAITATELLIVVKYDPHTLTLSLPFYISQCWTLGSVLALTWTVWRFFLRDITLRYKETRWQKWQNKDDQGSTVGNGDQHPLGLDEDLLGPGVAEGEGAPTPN
UniProt Q9UBI6, sequence (Q9UBI6 whole entry): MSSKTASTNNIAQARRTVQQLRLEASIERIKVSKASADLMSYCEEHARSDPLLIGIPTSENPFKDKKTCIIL
UniProt Q96EX1, sequence (Q96EX1 whole entry): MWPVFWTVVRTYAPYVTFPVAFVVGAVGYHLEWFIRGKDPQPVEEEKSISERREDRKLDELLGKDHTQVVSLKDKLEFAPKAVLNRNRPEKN

Target	thermal stability z-score [1]	thermal stability z-score [2, 3]	thermal stability z-score ([2]; arsenate co-treatment: none)
TCF12 (UniProt Q99081)	-0.203	-0.124	-0.0813
ZNF638 (UniProt Q14966)	-0.032	0.83	0.27
PPP1R8 (UniProt Q12972)	0.412	0.0226	-0.142
CD97 (UniProt P48960)	0.472	0.325	0.346
SMIM12 (UniProt Q96EX1)	0.0454	-0.371	0.35
MIB1 (UniProt Q86YT6)	-1.05	-0.621	-0.586
POGLUT1 (UniProt Q8NBL1)	1.16	-3.26	-3.23
NDUFB7 (UniProt P17568)	-0.462	-0.619	-0.28
SFXN1 (UniProt Q9H9B4)	0.0559	0.607	0.214
MRPS26 (UniProt Q9BYN8)	0.123	0.609	0.375
DHX37 (UniProt Q8IY37)	0.359	0.321	0.303
PTRF (UniProt Q6NZI2)	0.778	0.213	0.0879
COPRS (UniProt Q9NQ92)	-0.822	0.227	0.791
EHBP1L1 (UniProt Q8N3D4)	-0.3	-0.423	-0.0281
MAGOH|MAGOHB	0.0412	0.0953	0.171
ECSIT (UniProt Q9BQ95)	-0.207	0.434	-0.221
ABCD3 (UniProt P28288)	-0.13	-0.0141	-0.0329
RAB20 (UniProt Q9NX57)	-0.306	-0.495	-0.609
SLC3A2 (UniProt P08195)	0.0559	0.528	0.49
DDX6 (UniProt P26196)	1.01	0.414	0.53

Target	thermal stability z-score [1]	thermal stability z-score [2, 3]	thermal stability z-score ([2]; arsenate co-treatment: none)
GPN1 (UniProt Q9HCN4)	0.212	-0.0201	-0.00238
COPE (UniProt O14579)	0.0279	0.165	0.681
CAP2 (UniProt P40123)	0.329	0.00549	-0.126
EMG1 (UniProt Q92979)	-0.383	-0.357	-0.428
MBD2 (UniProt Q9UBB5)	-0.294	0.0418	0.0688
TRAPPC3 (UniProt O43617)	0.422	0.589	-0.0881
PTDSS2 (UniProt Q9BVG9)	-0.0291	0.2	-0.0317
SCAMP2 (UniProt O15127)	-1.4	0.21	-0.804
HERC5 (UniProt Q9UII4)	0.512	0.139	0.601
HACD3 (UniProt Q9P035)	-1.47	-1.92	-0.722
GCDH (UniProt Q92947)	-0.202	0.711	0.198
TBK1 (UniProt Q9UHD2)	-0.00763	-0.607	-0.189
TDG (UniProt Q13569)	-0.322	-0.0217	-0.0438
RTN4IP1 (UniProt Q8WWV3)	0.0315	-0.324	-0.26
SLC25A35 (UniProt Q3KQZ1)	0.172	0.135	-0.276
FCHSD2 (UniProt O94868)	-0.184	-0.0527	-0.175
ACP2 (UniProt P11117)	0.375	-0.226	-0.57
BCAR3 (UniProt O75815)	-0.106	-0.0123	-0.0689
PGP (UniProt A6NDG6)	-0.245	0.339	-0.0409
CASC3 (UniProt O15234)	-1.15	0.25	0.544

Target	thermal stability z-score [1]	thermal stability z-score [2, 3]	thermal stability z-score ([2]; arsenate co-treatment: none)
SEC31A (UniProt O94979)	0.497	0.00351	-0.104
NCAPD3 (UniProt P42695)	0.161	0.394	0.105
PRKDC (UniProt P78527)	-0.559	0.373	0.169
ELAC2 (UniProt Q9BQ52)	-0.274	-0.243	-0.21
TAF15 (UniProt Q92804)	1.34	2.08	1.21
TRNT1 (UniProt Q96Q11)	-0.174	0.00685	-0.189
ATP6V1H (UniProt Q9UI12)	-0.0897	0.0391	-0.146
EIF2A (UniProt Q9BY44)	1.13	0.673	0.102
PRKD2 (UniProt Q9BZL6)	-0.232	-0.0965	-0.0785
DTWD1 (UniProt Q8N5C7)	-0.742	-0.492	-0.205
LACTB2 (UniProt Q53H82)	-0.335	-0.112	-0.0753
ZW10 (UniProt O43264)	0.692	-0.0261	-0.137
TBL1XR1 (UniProt Q9BZK7)	-0.746	1.11	0.307
EXOC1 (UniProt Q9NV70)	0.0191	-0.268	0.043
ANP32B (UniProt Q92688)	-0.513	-0.711	-0.129
GNE (UniProt Q9Y223)	0.317	0.652	0.274
SLC31A1 (UniProt O15431)	0.321	0.126	0.215
GNG12 (UniProt Q9UBI6)	0.329	1.21	1.3
ABCD1 (UniProt P33897)	0.118	-0.752	-0.422
